Patent publication EP4653444A1, “FUSED TRICYCLIC COMPOUND AS KINASE INHIBITOR” (Hangzhou Innogate Pharma Co., Ltd., priority 2023, dated 2024)
Where two headings read alike, the source gives them in different places.

What was measured:
[1] = Pharmacokinetic study in rats; settings: rat, plasma, po, 3 mg/kg
Method: Pharmacokinetic parameters were calculated by statistical moment method using WinNonLin 8.0 software, mainly including Tmax, T1/2, Cmax and AUC0-24h.
Animals: Three male SD rats weighing 200-220 g were used. After purchase, they were housed in the laboratory animal center for 2 days before experiment. […] Blood samples were collected at scheduled time points after oral gavage.
Vehicle: 0.4% ethanol + 0.4% Tween 80 + 99.2% (0.5% methylcellulose M450). Preparation of oral gavage solution: The compound was accurately weighed and dissolved in vehicle by ultrasonication for 5 min at room temperature to prepare 0.3 mg/mL drug solution.
Single compound administration was also used to study pharmacokinetics in rats.
Blood sample collection: After oral gavage, blood samples were collected from orbital sinus at 0.25, 0.5, 1, 2, 4, 8, 10 and 24 h. 50 µL plasma was mixed with 200 µL acetonitrile (containing 2 ng/mL verapamil as internal standard). The mixture was vortexed for 3 min, then centrifuged at 20000 rcf for 10 min at 4 °C. The supernatant was analyzed by LC-MS/MS.
Standard curves were established by accurately weighing and preparing compounds at different concentrations for mass spectrometric quantification. Compound concentrations in plasma samples were determined based on standard curves to obtain concentration-time profiles. All measurement data were collected and processed by relevant software. Pharmacokinetic parameters (including Tmax, T1/2, Cmax and AUC0-24h) were calculated by statistical moment method.

FAK kinase [2] = target: T1, FAK kinase (Homo sapiens, UniProt Q05397); test: FAK kinase activity inhibition assay, method A (HTRF); assay type: biochemical
Method: (§1) The HTRF method was used to evaluate the inhibitory activity of the compounds against FAK kinase. […]. The reaction conditions were: FAK kinase at 0.1 ng/µL; ATP 10 µM; substrate concentration 1 µM. Compounds were serially diluted in DMSO and shaken on a shaker for 20 minutes. Prepare 2× kinase using 1× reaction buffer. Transfer 25 nL compound to a 384-well plate using Echo 655. Add 2.5 µL kinase per well. Seal the plate with sealing film, centrifuge at 1000 rpm for 60 seconds, and incubate at 25°C for 12 hours. Prepare 2× ATP/substrate mix using 1× enzyme reaction buffer and add 2.5 µL 2× ATP/substrate mix per well. Seal the plate with sealing film, centrifuge at 1000 rpm for 60 seconds, and incubate at 25°C for 50 minutes. Prepare 2×XL665 & antibody solution using HTRF detection buffer, and add 5 µL per well. Incubate at 25°C for 60 minutes. Read fluorescence at 620 nm (Cryptate) and 665 nm (XL665). Calculate the ratio per well (Ratio_665/620 nm). % Inhibition = 100% - [(Compound Ratio - Positive Control Ratio)/ (Negative Control Ratio - Positive Control Ratio)] × 100%. IC50 values (half-maximal inhibitory concentration) were calculated by nonlinear regression using GraphPad Prism 7.0. Y = Bottom + (Top - Bottom)/ (1 + 10^ ((LogIC50 - X) × Hill Slope)), where X is the log of compound concentration and Y is the % inhibition.

FAK kinase [3] = target: T1, FAK kinase; test: FAK kinase activity inhibition assay, method A (HTRF) and method B (Lantha screen); assay type: biochemical
Method: as §1
The Lantha screen assay was used to evaluate the FAK kinase inhibitory activity. Compounds were dissolved in 100% DMSO at 10 mM stock concentration. Prepare 1× kinase buffer (25 mM HEPES, pH 7.5, 0.01 mM Triton, 0.5 mM EGTA, 0.01% Brij-35). Dilute compounds in a gradient, and transfer 5 µL compound into the reaction plate. Prepare 2× kinase solution with 1× Kinase buffer. Add 5 µL kinase solution to compound and positive control wells, and 5 µL 1× Kinase buffer to negative control wells. Mix reaction plate by shaking. Prepare 4× ATP/Fluorescein-polyGT substrate mix with 1× Kinase buffer. Add 2.5 µL substrate solution to initiate the reaction. Shake and incubate at room temperature for 30 minutes. Prepare 2× detection reagent (2 nM antibody, 10 mM EDTA) and add 10 µL per well to stop the reaction. Briefly centrifuge, mix, and incubate for 60 minutes. Read fluorescence at 340 nm excitation and 520 nm/495 nm emission using EnVision. Collect data and calculate 520 nm/495 nm ratio. Calculate the inhibition percentage using the formula: % Inhibition = (Max - Sample Ratio)/(Max - Min) × 100, where min is the mean of negative control wells (no enzyme activity), and max is the mean of positive control wells (DMSO-inhibited conversion rate).Use XLFit Excel add-in version 5.4.0.8 to determine the IC50 values of each compound against the enzyme activity: Y = Bottom + (Top - Bottom)/(1 + (IC50/X)^HillSlope).

TNK1 kinase = target: T2, TNK1 kinase (Homo sapiens, UniProt Q13470); test: TNK1 kinase activity inhibition assay (ADP-Glo); assay type: biochemical
T2 sequence (Q13470 1-666): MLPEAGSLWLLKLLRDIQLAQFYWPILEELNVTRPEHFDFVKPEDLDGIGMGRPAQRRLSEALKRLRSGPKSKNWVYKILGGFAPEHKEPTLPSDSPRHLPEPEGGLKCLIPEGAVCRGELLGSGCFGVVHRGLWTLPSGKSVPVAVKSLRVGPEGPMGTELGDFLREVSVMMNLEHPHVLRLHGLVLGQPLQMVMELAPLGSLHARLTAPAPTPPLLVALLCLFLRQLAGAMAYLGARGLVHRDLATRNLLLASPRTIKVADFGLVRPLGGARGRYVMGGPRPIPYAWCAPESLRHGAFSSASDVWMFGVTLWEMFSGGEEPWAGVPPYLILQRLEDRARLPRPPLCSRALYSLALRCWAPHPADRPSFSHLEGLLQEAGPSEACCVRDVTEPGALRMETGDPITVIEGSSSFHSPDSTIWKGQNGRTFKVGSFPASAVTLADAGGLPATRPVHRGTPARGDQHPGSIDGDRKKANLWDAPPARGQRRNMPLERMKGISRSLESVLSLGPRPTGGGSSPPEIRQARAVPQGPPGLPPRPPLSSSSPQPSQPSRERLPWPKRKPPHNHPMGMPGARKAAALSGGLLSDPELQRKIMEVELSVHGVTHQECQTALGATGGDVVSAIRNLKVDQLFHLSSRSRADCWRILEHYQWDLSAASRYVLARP
Method: Measure compound inhibitory activity against TNK1 kinase using ADP-Glo Assay. 1× kinase reaction buffer was prepared (working concentrations: HEPES 50 mM, MgCl2 10 mM, Brij35 0.01%, EGTA 1 mM, DTT 2 mM). 2× kinase and 4× substrate buffers were prepared with the following working concentrations: For TNK1 kinase: kinase solution at 5 nM; substrate mixture containing ATP at 45 µM and MBP substrate at 0.1 mg/ mL. For ULK2 kinase: kinase solution at 0.15 nM; substrate mixture containing ATP at 6 µM and MBP substrate at 0.1 mg/mL. Compounds were serially diluted in DMSO and shaken on an orbital shaker for 20 minutes. 2× kinase solution was prepared using 1× kinase reaction buffer. 20 nL of compound solution was transferred to a 384-well plate. 2 µL of kinase solution was added to each well of the reaction plate. The plate was sealed with adhesive film, centrifuged at 1000 rpm for 60 seconds, and incubated at 25°C for 10 minutes. 2× ATP&MBP mixture was prepared using 1× kinase reaction buffer. 2 µL of 2× ATP&substrate mixture was added to the reaction plate. The plate was sealed with adhesive film, centrifuged at 1000 rpm for 60 seconds, and incubated at 25°C for 60 minutes. 4 µL of ADP-Glo reagent was transferred to the 384-well reaction plate, centrifuged at 1000 rpm for 1 minute, and incubated at 25°C for 40 minutes. 8 µL of Detection solution was transferred to the 384-well reaction plate, centrifuged at 1000 rpm for 1 minute, and incubated at 25°C for 40 minutes. Relative luminescence units (RLU) were measured using a BMG microplate reader, with signal intensity representing kinase activity level. The inhibition percentage was calculated as follows: % inhibition = 100% - [(Compound RLU - Positive Control RLU)/(Negative Control RLU - Positive Control RLU)] × 100%. The IC50 values (half-maximal inhibitory concentration) of compounds were determined by fitting the data to the following nonlinear regression equation using GraphPad Prism 7.0 software: Y = Bottom + (Top - Bottom)/(1 + 10^((LogIC50 - X) × Hill Slope)), where: X = log(compound concentration), Y = % inhibition. Table1: Inhibitory activity of compounds against ULK (IC50, nM)

[4] = Table 2, HTRF, ATP 10 µM, read-out: FAK (method A) (IC50)
[5] = Table 4, read-out: FAK(method A and method B) (IC50)

T1 sequence (Q05397 whole entry): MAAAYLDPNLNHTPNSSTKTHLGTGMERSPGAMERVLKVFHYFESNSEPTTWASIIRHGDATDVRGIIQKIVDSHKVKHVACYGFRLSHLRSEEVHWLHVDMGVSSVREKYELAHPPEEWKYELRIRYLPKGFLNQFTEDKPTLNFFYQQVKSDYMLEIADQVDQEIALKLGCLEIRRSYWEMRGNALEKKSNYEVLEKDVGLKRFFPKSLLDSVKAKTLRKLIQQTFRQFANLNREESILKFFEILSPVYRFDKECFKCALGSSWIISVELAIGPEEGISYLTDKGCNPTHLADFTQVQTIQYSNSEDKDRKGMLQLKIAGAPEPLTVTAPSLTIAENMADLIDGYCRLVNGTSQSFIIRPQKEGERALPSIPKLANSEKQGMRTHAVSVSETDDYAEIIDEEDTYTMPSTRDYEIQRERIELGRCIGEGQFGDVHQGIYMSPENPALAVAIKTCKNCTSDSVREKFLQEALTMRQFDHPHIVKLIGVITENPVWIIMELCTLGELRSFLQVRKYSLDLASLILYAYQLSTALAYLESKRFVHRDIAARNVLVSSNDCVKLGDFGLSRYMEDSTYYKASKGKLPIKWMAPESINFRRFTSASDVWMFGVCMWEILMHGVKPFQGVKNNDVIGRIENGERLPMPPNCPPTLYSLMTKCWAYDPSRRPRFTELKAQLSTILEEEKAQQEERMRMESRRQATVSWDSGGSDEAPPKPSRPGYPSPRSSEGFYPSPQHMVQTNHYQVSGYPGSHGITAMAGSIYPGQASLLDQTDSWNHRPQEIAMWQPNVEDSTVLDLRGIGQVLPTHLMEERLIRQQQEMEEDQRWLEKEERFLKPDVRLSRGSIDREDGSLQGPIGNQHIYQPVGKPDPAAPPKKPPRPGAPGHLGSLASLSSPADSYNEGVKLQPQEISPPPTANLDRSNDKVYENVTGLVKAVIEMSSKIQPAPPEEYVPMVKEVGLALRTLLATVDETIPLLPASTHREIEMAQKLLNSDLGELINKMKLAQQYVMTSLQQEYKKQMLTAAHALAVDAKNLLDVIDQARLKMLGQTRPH

Row | Compound | AUC(0-t) at 24 h [1] | Cmax [1] | Tmax [1] | half-life [1] | IC50 (FAK kinase [2]; [4]) | IC50 (FAK kinase [2]) | IC50 (FAK kinase [3]; Table 3, read-out: FAK(method A and B) (IC50)) | IC50 (FAK kinase [3]) | IC50 (FAK kinase [3]; [5]) | IC50 (TNK1 kinase) | IC50 (TNK1 kinase; Table 5, ATP 45 µM, read-out: TNK1 (IC50))
1 | CCc1cc2c(cc1Nc1ncc(C(F)(F)F)c(NCCCN3CCOCCC3=O)n1)OC[C@@H]1CN(C3CCN(C)CC3)CCN21 [Compound A2S] | 98 ng·h/mL | 11.8 ng/mL | 1.17 h | 7.05 h | – | – | – | – | – | – | –
2 | COc1cc2c(cc1Nc1ncc(C(F)(F)F)c(CCc3ccccc3CC(N)=O)n1)OC[C@H]1CN(C)CCN21 [Compound B1R] | 2330 ng·h/mL | 387 ng/mL | 2.7 h | 2.9 h | < 0.5 nM | – | – | – | – | – | –
3 | COc1cc2c(cc1Nc1ncc(C(F)(F)F)c(CCc3ccccc3CC(N)=O)n1)OC[C@H]1CN(C3CCN(C)CC3)CCN21 [Compound B2R] | 880 ng·h/mL | 76.4 ng/mL | 4.7 h | 7.4 h | – | < 0.5 nM | – | – | – | – | –
4 | COc1cc2c(cc1Nc1ncc(C(F)(F)F)c(CCc3ccccc3CC(N)=O)n1)OC[C@H]1CNCCN21 [Compound B3R] | 690 ng·h/mL | 68.9 ng/mL | 3.3 h | 7.9 h | < 0.5 nM | – | – | – | – | – | –
5 | COc1cc2c(cc1Nc1ncc(C(F)(F)F)c(CCc3ccccc3CC(N)=O)n1)OC[C@H]1CN(C3CCOCC3)CCN21 [Compound B4R] | 568 ng·h/mL | 200 ng/mL | 0.8 h | 1.5 h | – | < 0.5 nM | – | – | – | – | –
6 | COc1cc2c(cc1Nc1ncc(C(F)(F)F)c(CCc3ccccc3CC(N)=O)n1)OC[C@H]1CN(C3CCNCC3)CCN21 [Compound B10R] | – | – | – | – | < 0.5 nM | – | – | – | – | – | –
7 | CC(C)Oc1cc2c(cc1Nc1ncc(Cl)c(Nc3ccccc3S(=O)(=O)C(C)C)n1)OC[C@@H]1CN(C3CCN(C)CC3)CCN21 [Compound C3S] | – | – | – | – | – | – | < 5 nM | – | – | – | –
8 | CNC(=O)c1ccccc1Nc1cc(Nc2cc3c(cc2OC)N2CCN(C4CCOCC4)C[C@H]2CO3)ncc1C(F)(F)F [Compound D1S] | 11000 ng·h/mL | 2320 ng/mL | 1.67 h | 2.63 h | – | – | – | < 0.5 nM | – | – | –
9 | CNC(=O)c1ccccc1Nc1cc(Nc2cc3c(cc2OC)N2CCN(C4COC4)C[C@H]2CO3)ncc1C(F)(F)F [Compound D3S] | – | – | – | – | – | – | – | – | < 1 nM | – | –
10 | CCOc1cc2c(cc1Nc1cc(Nc3ccccc3C(=O)NC)c(C(F)(F)F)cn1)OC[C@@H]1CN(C3CCN(C)CC3)CCN21 [Compound D5S] | – | – | – | – | – | – | – | – | < 1 nM | – | –
11 | CNC(=O)c1ccccc1Nc1cc(Nc2cc3c(cc2OC(C)C)N2CCN(C4CCN(C)CC4)C[C@H]2CO3)ncc1C(F)(F)F [Compound D6S] | 675 ng·h/mL | 52.3 ng/mL | 6.67 h | 5.74 h | – | – | – | < 3 nM | – | – | –
12 | COc1cc2c(cc1Nc1ncc(Cl)c(Nc3cccnc3N3CCCC3=O)n1)OC[C@H]1CNCCN21 [Compound E1R] | – | – | – | – | – | – | – | – | – | < 0.5 nM | –
13 | COc1cc2c(cc1Nc1ncc(Cl)c(Nc3cccnc3N3CCCC3=O)n1)OC[C@H]1CN(C)CCN21 [Compound E2R] | 332 ng·h/mL | 74.4 ng/mL | 1 h | 2.07 h | – | – | – | – | – | < 0.5 nM | –
14 | COc1cc2c(cc1Nc1ncc(Cl)c(Nc3cccnc3N3CCCC3=O)n1)OC[C@H]1CN(C3CCN(C)CC3)CCN21 [Compound E3R] | – | – | – | – | – | – | – | – | – | – | < 0.5 nM
15 | COc1cc2c(cc1Nc1ncc(Cl)c(Nc3cccnc3N3CCCC3=O)n1)OC[C@H]1CN(C3CCOCC3)CCN21 [Compound E4R] | 83.9 ng·h/mL | 69 ng/mL | 0.5 h | 0.99 h | – | – | – | – | – | < 0.5 nM | –
16 | COc1cc2c(cc1Nc1ncc(Cl)c(Nc3cccnc3N3CCCC3=O)n1)OC[C@H]1CN(C(C)=O)CCN21 [Compound E5R] | 1560 ng·h/mL | 500 ng/mL | 1 h | 1.38 h | – | – | – | – | – | < 0.5 nM | –
17 | CCC(=O)N1CCN2c3cc(OC)c(Nc4ncc(Cl)c(Nc5cccnc5N5CCCC5=O)n4)cc3OC[C@H]2C1 [Compound E6R] | 581 ng·h/mL | 352 ng/mL | 0.5 h | 1.05 h | – | – | – | – | – | < 1 nM | –
18 | COc1cc2c(cc1Nc1ncc(Cl)c(Nc3cccnc3N3CCCC3=O)n1)OC[C@H]1CN(C(=O)C3CC3)CCN21 [Compound E7R] | 473 ng·h/mL | 292 ng/mL | 0.5 h | 1.08 h | – | – | – | – | – | < 2 nM | –
19 | COc1cc2c(cc1Nc1ncc(Cl)c(Nc3cccnc3N3CCCC3=O)n1)OC[C@H]1CN(C3CN(C)C3)CCN21 [Compound E8R] | 3170 ng·h/mL | 411 ng/mL | 2 h | 3.37 h | – | – | – | – | – | < 2 nM | –
20 | CCN1CCC(N2CCN3c4cc(OC)c(Nc5ncc(Cl)c(Nc6cccnc6N6CCCC6=O)n5)cc4OC[C@H]3C2)CC1 [Compound E9R] | 1200 ng·h/mL | 71.6 ng/mL | 9.33 h | 14.5 h | – | – | – | – | – | < 1 nM | –
21 | COc1cc2c(cc1Nc1ncc(Cl)c(Nc3cccnc3N3CCCC3=O)n1)OC[C@H]1CN(C3CCN(C4CC4)CC3)CCN21 [Compound E10R] | 2000 ng·h/mL | 133 ng/mL | 3.67 h | 9.69 h | – | – | – | – | – | < 0.5 nM | –
22 | COc1cc2c(cc1Nc1ncc(Cl)c(Nc3cccnc3N3CCCC3=O)n1)OC[C@H]1CN(C3CCN(C(C)=O)CC3)CCN21 [Compound E11R] | 8110 ng·h/mL | 1090 ng/mL | 1.33 h | 4.36 h | – | – | – | – | – | < 1 nM | –
